Assay results: ChEMBL document CHEMBL1221222, “Analysis of the eukaryotic prenylome by isoprenoid affinity tagging” (Nat Chem Biol, 2009)
Active and inactive are the calls of the source. No cut-off for these calls is given here.

What was measured:
[1] = Binding affinity to GGTase-1 by NBD fluorescence assay
[2] = tested on: Protein farnesyltransferase subunit beta (Homo sapiens), P49356 [Y154T]; test: Binding affinity to FTase Y154T mutant assessed as prenylation of CFP-CAAX by Western blot analysis
[3] = tested on: Protein farnesyltransferase subunit beta (Homo sapiens), P49356 [Y154T]; test: Binding affinity to FTase Y154T mutant assessed as prenylation of Ki-Ras by ESI-MS analysis
[4] = tested on: Protein farnesyltransferase subunit beta (Homo sapiens), P49356 [W102T,Y365F]; test: Binding affinity to FTase W102T/Y365F mutant assessed as prenylation of Ki-Ras by ESI-MS analysis
[5] = tested on: Protein farnesyltransferase subunit beta (Homo sapiens), P49356 [W102T,Y365F]; test: Binding affinity to FTase W102T/Y365F mutant assessed as prenylation of CFP-CAAX by Western blot analysis
[6] = Binding affinity to GGTase-1 F53Y/Y126T mutant assessed as prenylation of RhoA GTPase by Western blot method
[7] = tested on: Protein farnesyltransferase subunit beta (Homo sapiens), P49356 [W102T]; test: Binding affinity to FTase W102T mutant assessed as prenylation of Ki-Ras by Western blot analysis
[8] = tested on: Protein farnesyltransferase subunit beta (Homo sapiens), P49356 [W102T,Y154T]; test: Binding affinity to FTase W102T/Y154T mutant assessed as prenylation of CFP-CAAX by Western blot analysis
[9] = tested on: COS-7; test: Binding affinity to GGTase-1 F53Y/Y126T mutant in african green monkey COS7 lysate assessed as protein prenylation by two-dimensional SDS-PAGE method
[10] = tested on: Protein farnesyltransferase subunit beta (Homo sapiens), P49356 [W102T,Y154T]; test: Binding affinity to FTase W102T/Y154T mutant assessed as prenylation of CFP-CAAX by ESI-MS analysis
[11] = tested on: Protein farnesyltransferase subunit beta (Homo sapiens), P49356 [W102T,Y154T]; test: Binding affinity to FTase W102T/Y154T mutant assessed as prenylation of Ki-Ras by ESI-MS analysis
[12] = tested on: Protein farnesyltransferase subunit beta (Homo sapiens), P49356 [Y154T]; test: Binding affinity to FTase Y154T mutant assessed as prenylation of Ki-Ras by Western blot analysis
[13] = Binding affinity to RabGGTase assessed as prenylation of Rab27 by SDS PAGE
[14] = Binding affinity to FTase assessed as prenylation of Ki-Ras by SDS PAGE
[15] = Binding affinity to GGTase-1 F53Y/Y126T mutant assessed as prenylation of dansyl-labeled GCVLS by fluorescence based assay
[16] = tested on: Geranylgeranyl transferase type-1 subunit beta (Homo sapiens), P53609 [Y126T]; test: Binding affinity to GGTase-1 Y126T mutant assessed as prenylation of RhoA GTPase by Western blot method
[17] = tested on: Protein farnesyltransferase subunit beta (Homo sapiens), P49356 [W102T]; test: Binding affinity to FTase W102T mutant assessed as prenylation of CFP-CAAX by Western blot analysis
[18] = Binding affinity to RabGGTase by NBD fluorescence assay
[19] = tested on: Geranylgeranyl transferase type-1 subunit beta (Homo sapiens), P53609 [F52Y,Y126T]; test: Binding affinity to GGTase-1 F52Y/Y126T mutant assessed as prenylation of RhoA GTPase by Western blot method
[20] = tested on: Protein farnesyltransferase subunit beta (Homo sapiens), P49356 [W102T,Y154T]; test: Binding affinity to FTase W102T/Y154T mutant in african green monkey COS7 lysate assessed as prenylation of CFP-CAAX by Western blot method; details: COS-7
[21] = Binding affinity to FTase by X-ray crystallography
[22] = tested on: Geranylgeranyl transferase type-1 subunit beta (Homo sapiens), P53609 [F52Y,F53Y,Y126T]; test: Binding affinity to GGTase-1 F52Y/F53Y/Y126T mutant in african green monkey COS7 lysate assessed as prenylation of RhoA by Western blot method; details: COS-7
[23] = tested on: Protein farnesyltransferase subunit beta (Homo sapiens), P49356 [Y154T]; test: Binding affinity to FTase Y154T mutant assessed as prenylation of CFP-CAAX by ESI-MS analysis
[24] = tested on: Protein farnesyltransferase subunit beta (Homo sapiens), P49356 [W102T]; test: Binding affinity to FTase W102T mutant assessed as prenylation of Ki-Ras by ESI-MS analysis
[25] = Binding affinity to GGTase-1 F53Y/Y126T mutant assessed as prenylation of dansyl-labeled GCVLL by fluorescence based assay
[26] = tested on: Protein farnesyltransferase subunit beta (Homo sapiens), P49356 [W102T,Y154T]; test: Binding affinity to FTase W102T/Y154T mutant assessed as prenylation of Ki-Ras by Western blot analysis
[27] = tested on: Protein farnesyltransferase subunit beta (Homo sapiens), P49356 [W102T,Y154T,Y205T]; test: Binding affinity at FTase W102T/Y154T/Y205T mutant in african green monkey COS7 lysate assessed as protein prenylation by two-dimensional SDS-PAGE method; details: COS-7
[28] = tested on: Protein farnesyltransferase subunit beta (Homo sapiens), P49356 [W102T,Y154T,Y205T]; test: Binding affinity to FTase W102T/Y154T/Y205T mutant in african green monkey COS7 lysate assessed as prenylation of CFP-CAAX by Western blot method; details: COS-7
[29] = tested on: COS-7; test: Binding affinity to GGTase-1 F53Y/Y126T mutant in african green monkey COS7 lysate assessed as prenylation of RhoA by Western blot method
[30] = tested on: COS-7; test: Binding affinity to wild type FTase in african green monkey COS7 lysate assessed as prenylation of CFP-CAAX by Western blot method
[31] = tested on: Protein farnesyltransferase subunit beta (Homo sapiens), P49356 [W102T]; test: Binding affinity to FTase W102T mutant assessed as prenylation of CFP-CAAX by ESI-MS analysis
[32] = tested on: Protein farnesyltransferase subunit beta (Homo sapiens), P49356 [W102T,Y365F]; test: Binding affinity to FTase W102T/Y365F mutant assessed as prenylation of Ki-Ras by Western blot analysis
[33] = Binding affinity to GGTase-1 assessed as prenylation of RhoA by SDS PAGE
[34] = Binding affinity to RabGGTase assessed as prenylation of Rab7 by SDS PAGE
[35] = tested on: Protein farnesyltransferase subunit beta (Homo sapiens), P49356 [W102T,Y365F]; test: Binding affinity to FTase W102T/Y365F mutant assessed as prenylation of CFP-CAAX by ESI-MS analysis
[36] = tested on: COS-7; test: Binding affinity to RabGGTase in african green monkey COS7 lysate assessed as prenylation of Rab by two-dimensional SDS-PAGE method

Chain of Protein farnesyltransferase subunit beta (Homo sapiens), P49356 [Y154T] (P49356 whole entry Y154T): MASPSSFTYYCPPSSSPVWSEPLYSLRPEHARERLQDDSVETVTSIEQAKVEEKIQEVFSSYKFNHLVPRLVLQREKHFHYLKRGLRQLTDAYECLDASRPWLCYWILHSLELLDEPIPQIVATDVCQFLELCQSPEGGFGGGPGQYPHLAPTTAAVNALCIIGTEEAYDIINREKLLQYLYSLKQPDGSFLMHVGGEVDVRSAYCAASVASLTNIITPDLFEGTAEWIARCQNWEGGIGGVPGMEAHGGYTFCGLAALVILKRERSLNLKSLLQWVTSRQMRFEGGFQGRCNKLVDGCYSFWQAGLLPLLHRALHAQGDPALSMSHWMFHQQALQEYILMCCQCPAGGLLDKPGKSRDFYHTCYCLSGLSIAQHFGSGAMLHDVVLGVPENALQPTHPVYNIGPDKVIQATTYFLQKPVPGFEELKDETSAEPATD
Chain of Protein farnesyltransferase subunit beta (Homo sapiens), P49356 [W102T] (P49356 whole entry W102T): as the sequence (P49356 whole entry Y154T) above, with W102T, T154Y counted along it
Chain of Protein farnesyltransferase subunit beta (Homo sapiens), P49356 [W102T,Y365F] (P49356 whole entry W102T/Y365F): as the sequence (P49356 whole entry Y154T) above, with W102T, T154Y, Y365F counted along it
Chain of Protein farnesyltransferase subunit beta (Homo sapiens), P49356 [W102T,Y154T] (P49356 whole entry W102T/Y154T): as the sequence (P49356 whole entry Y154T) above, with W102T counted along it
Chain of Protein farnesyltransferase subunit beta (Homo sapiens), P49356 [W102T,Y154T,Y205T] (P49356 whole entry W102T/Y154T/Y205T): as the sequence (P49356 whole entry Y154T) above, with W102T, Y205T counted along it
Chain of Geranylgeranyl transferase type-1 subunit beta (Homo sapiens), P53609 [Y126T] (P53609 whole entry Y126T): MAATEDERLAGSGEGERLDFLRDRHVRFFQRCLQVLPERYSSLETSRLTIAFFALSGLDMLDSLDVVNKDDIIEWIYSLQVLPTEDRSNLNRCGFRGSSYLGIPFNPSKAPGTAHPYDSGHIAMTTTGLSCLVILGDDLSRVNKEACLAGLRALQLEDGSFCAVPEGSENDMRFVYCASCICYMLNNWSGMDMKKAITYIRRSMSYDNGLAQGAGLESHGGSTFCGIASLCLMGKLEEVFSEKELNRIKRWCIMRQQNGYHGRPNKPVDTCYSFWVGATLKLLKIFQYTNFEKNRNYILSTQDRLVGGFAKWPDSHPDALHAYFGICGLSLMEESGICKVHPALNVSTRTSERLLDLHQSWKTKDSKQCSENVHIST
Chain of Geranylgeranyl transferase type-1 subunit beta (Homo sapiens), P53609 [F52Y,Y126T] (P53609 whole entry F52Y/Y126T): as the sequence (P53609 whole entry Y126T) above, with F52Y counted along it
Chain of Geranylgeranyl transferase type-1 subunit beta (Homo sapiens), P53609 [F52Y,F53Y,Y126T] (P53609 whole entry F52Y/F53Y/Y126T): as the sequence (P53609 whole entry Y126T) above, with F52Y, F53Y counted along it

Which Kd [1] does the source give for `C/C(=C\COP(=O)(O)OP(=O)(O)O)CC/C=C(\C)CNC(=O)CCCC[C@@H]1SC[C@@H]2NC(=O)N[C@@H]21` [biotin-geranylpyrophosphate] here?
Its Kd is 45 nM.

What about the Activity [2] of the same molecule?
The Activity was “inactive”.

What about the Activity [3] of the same molecule?
Its Activity is “inactive”.

What about the Activity [4] of the same molecule?
Its Activity is “inactive”.

What about the Activity [5] of the same molecule?
Its Activity is “inactive”.

And the Activity [6]?
The Activity was “Active”.

What about the Activity [7] of the same molecule?
The Activity was “inactive”.

And the Activity [8]?
Its Activity is “Active”.

What about the Activity [9] of the same molecule?
The Activity was “Active”.

And the Activity [10]?
Its Activity is “Active”.

What about the Activity [11] of the same molecule?
Its Activity is “Active”.

What about the Activity [12] of the same molecule?
Its Activity is “inactive”.

And the Activity [13]?
Its Activity is “Active”.

And the Activity [14]?
Its Activity is “inactive”.

What about the Activity [15] of the same molecule?
Its Activity is “inactive”.

And the Activity [16]?
Its Activity is “Active”.

And the Activity [17]?
The Activity was “inactive”.

What about the Kd [18] of the same molecule?
The Kd was 2.2 nM.

What about the Activity [19] of the same molecule?
Its Activity is “inactive”.

And the Activity [20]?
Its Activity is “Active”.

And the Activity [21]?
Its Activity is “Active”.

What about the Activity [22] of the same molecule?
The Activity was “Active”.

And the Activity [23]?
The Activity was “inactive”.

And the Activity [24]?
Its Activity is “inactive”.

What about the Activity [25] of the same molecule?
The Activity was “inactive”.

What about the Activity [26] of the same molecule?
Its Activity is “Active”.

And the Activity [27]?
The Activity was “Active”.

And the Activity [28]?
The Activity was “Active”.

And the Activity [29]?
Its Activity is “Active”.

What about the Activity [30] of the same molecule?
The Activity was “Active”.

And the Activity [31]?
The Activity was “inactive”.

What about the Activity [32] of the same molecule?
Its Activity is “inactive”.

And the Activity [33]?
The Activity was “inactive”.

What about the Activity [34] of the same molecule?
The Activity was “Active”.

What about the Activity [35] of the same molecule?
The Activity was “inactive”.

And the Activity [36]?
The Activity was “Active”.
